In patent US6900216B2, “Dihydroimidazo[2,1-b]thiazole and dihydro-5h-thiazolo[3,2-A]pyrimidines as antidepressant agents” (Knoll GmbH, priority 2000, dated 2005) one finds Ki, melting point and inhibition data, which are given here for twelve compounds.

One may read the Ki as the equilibrium dissociation constant of an inhibitor or competing ligand from its target. A higher Ki goes with a looser hold on the target. What is called melting point is the temperature, or range, at which the solid turns liquid.

The target of data set [1] is T1, noradrenaline (NA) reuptake sites (Rattus norvegicus, UniProt Q63380).
T1 construct: Frontal cortical tissue from the brains of male Charles River rats; from tissue; host or cells: rat frontal cortical membranes
Briefly: NA uptake: displacement of [3H]nisoxetine from noradrenaline reuptake sites, rat frontal cortical membranes. Format: binding. The note with it: for Ki: [3H]nisoxetine 0.6 nM, rat frontal cortical membranes, fit to data from three experiments; for inhibition at 1 µM: read-out: NA uptake % displacement at 10^−6 M. On the procedure:
Frontal cortical tissue from the brains of male Charles River rats weighing 150-250 g was homogenised in ice-cold 50 mM Tris-HCl, pH 7.4 (at 25° C.) containing 120 mM sodium chloride and 5 mM potassium chloride (Tris buffer; 1:60 w/v) using a Kinematic polytron (speed setting 6 for 10 seconds) and centrifuged at 40,000 g for 10 minutes. The supernatant was discarded and the pellet rehomogenised in Tris buffer, 1:60 w/v, and centrifuged at 40,000 g for 10 minutes. This step was repeated twice more so that, in total, the brain tissue was homogenised and centrifuged four times. The final pellet was resuspended in 50 mM Tris-HCl, pH 7.4 containing 300 mM sodium chloride and 5 mM potassium chloride (equivalent to 18.75 mg wet weight of tissue/ml) and used immediately in the binding assay. All centrifugations were performed at 4° C.
Membranes (400 μl; equivalent to 7.5 mg wet weight of tissue/tube) were incubated with 50 μl [^3H]nisoxetine at a single concentration of 0.6 nM and 50 μl of distilled water (total binding) or 50 μl^− of test compound (at a single concentration 10^−6M or at 10 concentrations ranging from 10^−11-10^−3 M) or 50 μl of mazindol (1 μM; non-specific binding) for 4 h at 4° C. Membrane bound radioactivity was recovered by filtration under vacuum through Skatron 11734 filters using a Skatron cell harvester. Filters were rapidly washed with ice-cold 50 mM Tris-HCl, pH 7.4 containing 120 mM sodium chloride and 5 mM potassium chloride (wash setting 9,9,0). The scored filter paper discs were punched out into vials, scintillation fluid added and radioactivity determined by liquid scintillation counting.
For each of these tests measuring the ability of compounds of Formula I to displace standard ligands from 5-HT1A receptors and 5-hydroxytryptamine (5-HT) and noradrenaline (NA) reuptake sites and muscarinic receptors in vitro, the percentage displacement of specific binding of tritiated ligand by 10^−6 M test compound was calculated in the following way.
Firstly, specific binding of tritiated ligand in the absence (A) and presence (B) of test compound was determined:
In the absence of compound: A(dpm)=Total binding (dpm)−Non-specific binding (dpm) In the presence of compound (10^−6 M): B(dpm)=Binding at 10^−6M (dpm)−Non-specific binding (dpm)
The specific binding of tritiated ligand in the presence (B) of compound was then converted to a percentage of specific binding of tritiated ligand in the absence (A) of compound: % Specific binding at 10^−6 M=B(dpm)/A(dpm)×100
The percentage displacement of specific binding of tritiated ligand by the test compound (10^−6 M) was then obtained by subtraction of the percentage specific binding in the presence of compound from the percentage specific binding in the absence of compound, which is taken as the maximum binding and so equals 100%:
% Displacement at 10^−6 M=100−% Specific binding at 10^−6 M.
In some cases, displacement curves were then produced for compounds which displaced ≧50% of specific binding of the tritiated ligand at 10^−6 M using a range of concentrations of the compound. The Ki was then calculated by simultaneous fitting using equations derived from the Feldman equations by robust non-linear regression to data from three experiments simultaneously (De Lean et al., 1978; Munson and Rodbard, 1980; Feldman, 1992). Munson P J and Rodbard D. Ligand: a versatile computerised approach for characterisation of ligand binding systems. Anal Biochem 1980; 107: 220. Feldman HA. Mathematical theory of complex ligand binding systems at equilibrium: some methods for parameter fitting. Anal Biochem 1992: 48, 317. De Lean A, Munson P J and Rodbard D. Simultaneous analysis of families of sigmoidal curves: application to bioassay, radioligand assay, and physiological dose-response curves. Am J Physiol 1978: 235 (2), E97-E102. […]
(Loss of bound radioactivity is the signal in a displacement assay; it reports binding, not function.)

Molecules are shown by their SMILES.

T1 sequence (Q63380 1-617): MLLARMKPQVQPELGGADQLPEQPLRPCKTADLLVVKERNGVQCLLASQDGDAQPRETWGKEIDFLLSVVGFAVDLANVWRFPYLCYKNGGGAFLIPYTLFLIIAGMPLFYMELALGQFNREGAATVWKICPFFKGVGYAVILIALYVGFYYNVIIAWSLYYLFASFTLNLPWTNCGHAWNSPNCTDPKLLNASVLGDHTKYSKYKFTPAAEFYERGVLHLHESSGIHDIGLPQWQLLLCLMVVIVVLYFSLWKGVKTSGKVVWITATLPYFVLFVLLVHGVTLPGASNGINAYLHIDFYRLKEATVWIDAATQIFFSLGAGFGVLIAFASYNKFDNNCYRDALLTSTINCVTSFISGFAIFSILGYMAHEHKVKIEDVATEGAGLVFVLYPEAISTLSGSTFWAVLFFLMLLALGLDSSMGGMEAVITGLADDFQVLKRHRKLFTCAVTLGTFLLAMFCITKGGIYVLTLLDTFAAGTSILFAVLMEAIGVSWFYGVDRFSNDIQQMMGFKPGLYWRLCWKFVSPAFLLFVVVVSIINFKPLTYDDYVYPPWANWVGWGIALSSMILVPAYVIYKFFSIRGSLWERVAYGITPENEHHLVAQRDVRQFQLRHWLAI

Compound `CCC1=C(c2cccc3sccc23)N2CCN=C2S1.O=C(O)/C=C/C(=O)O` [Example 25, 3-(benzo[b]thiophen-4-yl)-2-ethyl-5,6-dihydroimidazo[2,1-b]thiazole fumarate] returned a melting point of 171 to 173 °C. In data set [1], this compound gave a Ki of 5.4 nM.

The compound `Br.COc1cccc2cc(C3=C(C)SC4=NCCN43)sc12` [Example 26, 3-(7-methoxybenzo[b]thiophen-2-yl)-2-methyl-5,6-dihydroimidazo[2,1-b]thiazole hydrobromide] showed a melting point of 270 to 272 °C. Moreover, the inhibition at 1 µM in data set [1] is -3%.

In turn, `OCC1=C(c2ccc3sccc3c2)N2CCN=C2S1` [Example 28, [3-(benzo[b]thiophen-5-yl)-5,6-dihydroimidazo[2,1-b]-thiazol-2-yl]methanol] showed a melting point of 149 to 150 °C. The same compound gave a Ki in data set [1] of 5.4 nM.

Turning to `CCC1=C(c2ccc3sccc3c2)N2CCN=C2S1.O=C(O)/C=C/C(=O)O` [Example 31, 3-(benzo[b]thiophen-5-yl)-2-ethyl-5,6-dihydroimidazo[2,1-b]thiazole fumarate], the melting point lay within 145 to 150 °C. In addition, the affinity in data set [1] corresponds to a Ki of 4.3 nM.

The compound `CSC1=C(c2cccc3sccc23)N2CCN=C2S1.O=C(O)/C=C/C(=O)O` [Example 32, 3-(benzo[b]thiophen-4-yl)-2-(methylthio)-5,6-dihydroimidazo[2,1-b]thiazole fumarate] returned a melting point of 185 to 187 °C. The compound also had a Ki in data set [1] of 3.5 nM.

In the case of `CC1=C(c2cccc3sc(C)cc23)N2CCN=C2S1.Cl` [Example 33, 2-methyl-3-(2-methylbenzo[b]thiophen-4-yl)-5,6-dihydroimidazo[2,1-b]thiazole hydrochloride], the melting point turned out to be 271 °C. In data set [1], the inhibition at 1 µM worked out at 84%.

`Br.c1cc(C2=C(C3CC3)SC3=NCCN32)c2ccsc2c1` [Example 34, 3-(benzo[b]thiophen-4-yl)-2-cyclopropyl-5,6-dihydroimidazo[2,1-b]thiazole hydrobromide] yielded a melting point of 213 to 214 °C. In addition, the affinity in data set [1] corresponds to a Ki of 2 nM.

In turn, `CC(C)C1=C(c2cccc3sccc23)N2CCN=C2S1.O=C(O)/C=C/C(=O)O` [Example 35, 3-(benzo[b]thiophen-4-yl)-2-(1-methylethyl)-5,6-dihydroimidazo[2,1-b]thiazole fumarate] had a melting point of 175 to 178 °C. Further, the Ki in data set [1] was determined as 5.5 nM.

`Br.C=CCC1=C(c2cccc3sccc23)N2CCN=C2S1` [Example 36, 2-allyl-3-(benzo[b]thiophen-4-yl)-5,6-dihydroimidazo[2,1-b]thiazole hydrobromide] displayed a melting point of 188 to 190 °C. Also, the Ki in data set [1] amounted to 1.7 nM.

Regarding `Br.CC1=C(c2ccc3ccsc3c2)N2CCN=C2S1` [Example 37, 3-(benzo[b]thiophen-6-yl)-2-methyl-5,6-dihydroimidazo[2,1-b]thiazole hydrobromide], the melting point lay within 252 to 254 °C. Further, the Ki in data set [1] came out at 7.4 nM.

Consider `Br.CC1=C(c2ccc(F)c3sccc23)N2CCN=C2S1` [Example 38, 3-(7-fluorobenzo[b]thiophen-4-yl)-2-methyl-5,6-dihydroimidazo[2,1-b]thiazole hydrobromide], for which the melting point was 265 to 267 °C. The compound also yielded a Ki in data set [1] of 1.2 nM.

With `C=CC1=C(c2cccc3sccc23)N2CCN=C2S1.Cl` [Example 39, 3-(benzo[b]thiophen-4-yl)-2-vinyl-5,6-dihydroimidazo[2,1-b]thiazole hydrochloride], the melting point fell in the range of 195 to 197 °C. In data set [1], the inhibition at 1 µM came to 100%.
